What was measured:
FGFR2 = FGFR2 (Homo sapiens (Human), UniProt P21802); experiment: Biochemical FGFR2 Caliper assay
SNU-16 = experiment: Cell SNU-16 assay; assay type: cell-based
[1] = Homo sapiens, SNU-16, SNU-16 cells

Sequence of FGFR2 (P21802 22-821): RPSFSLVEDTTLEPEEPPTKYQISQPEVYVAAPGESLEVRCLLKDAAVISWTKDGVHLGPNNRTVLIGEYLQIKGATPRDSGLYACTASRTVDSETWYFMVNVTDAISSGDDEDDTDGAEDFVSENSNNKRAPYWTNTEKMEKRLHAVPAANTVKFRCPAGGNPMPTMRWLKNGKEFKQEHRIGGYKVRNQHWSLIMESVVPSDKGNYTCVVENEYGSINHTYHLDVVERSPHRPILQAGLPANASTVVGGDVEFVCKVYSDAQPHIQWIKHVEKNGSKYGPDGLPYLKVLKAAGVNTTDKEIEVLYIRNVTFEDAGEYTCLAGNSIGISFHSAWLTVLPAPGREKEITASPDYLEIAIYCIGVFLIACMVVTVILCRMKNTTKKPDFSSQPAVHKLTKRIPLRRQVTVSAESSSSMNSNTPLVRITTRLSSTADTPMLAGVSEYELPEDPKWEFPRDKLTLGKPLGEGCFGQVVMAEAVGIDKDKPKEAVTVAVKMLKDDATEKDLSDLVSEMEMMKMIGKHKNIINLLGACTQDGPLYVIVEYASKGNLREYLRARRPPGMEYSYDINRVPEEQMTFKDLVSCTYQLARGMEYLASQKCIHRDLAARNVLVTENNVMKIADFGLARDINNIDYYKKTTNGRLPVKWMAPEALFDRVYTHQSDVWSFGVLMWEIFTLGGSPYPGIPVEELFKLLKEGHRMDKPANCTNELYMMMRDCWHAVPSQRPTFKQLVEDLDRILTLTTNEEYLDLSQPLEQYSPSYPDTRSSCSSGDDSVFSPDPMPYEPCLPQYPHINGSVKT

Row | Compound | IC50 (FGFR2) [nM] | IC50 (SNU-16; [1]) [nM] | IC50 (SNU-16; SNU-16 cells) [nM]
1 | C=C(C)C(=O)Nc1ccc(-c2c(C3=CC[C@H](C(=O)N4CCC[C@@H]4C)CC3)c3c(N)ncnc3n2C)cc1 [Example 991] | < 100 | ≤ 100 | 
2 | C=C(C)C(=O)Nc1ccc(-c2c(C3=CC[C@@H](C(=O)N4CCCC[C@H]4C)CC3)c3c(N)ncnc3n2C)cc1 [Example 992] | 1000 to 100000 | 100 to 250 | 
3 | C=C(C)C(=O)Nc1ccc(-c2c(C3=CC[C@@H](S(=O)(=O)N4CCCC4)CC3)c3c(N)ncnc3n2C)cc1 [Example 993] | < 100 | ≤ 100 | 
4 | C=C(C)C(=O)Nc1ccc(-c2c(C3=CC[C@H](C(=O)N4CCCC[C@H]4C)CC3)c3c(N)ncnc3n2C)cc1 [Example 994] | 1000 to 100000 | 100 to 250 | 
5 | C=C(C)C(=O)Nc1ccc(-c2c(C3=CC[C@H](S(=O)(=O)N4CCCC4)CC3)c3c(N)ncnc3n2C)cc1 [Example 995] | 1000 to 100000 | 250 to 1000 | 
6 | C=C(C)C(=O)Nc1ccc(-c2c(C3=CC[C@@H](C(=O)N4CC5CC4C5)CC3)c3c(N)ncnc3n2C)cc1 [Example 996] | 250 to 1000 | 100 to 250 | 
7 | C=C(C)C(=O)Nc1ccc(-c2c(C3=CC[C@H](C(=O)N4CC5CC4C5)CC3)c3c(N)ncnc3n2C)cc1 [Example 997] | 1000 to 100000 | 250 to 1000 | 
8 | C=C(C)C(=O)Nc1ccc(-c2c(C3=CC[C@@H](C(=O)N4CCCC45CCC5)CC3)c3c(N)ncnc3n2C)cc1 [Example 998] | < 100 | ≤ 100 | 
9 | C=C(C)C(=O)Nc1ccc(-c2c(C3=CC[C@H](C(=O)N4CCCC45CCC5)CC3)c3c(N)ncnc3n2C)cc1 [Example 999] | < 100 | ≤ 100 | 
10 | C#Cc1ncc(-c2c(-c3ccc(Oc4nccc(C)n4)cc3)c3c(N)ncnc3n2C)cn1 [Example 1000] | 1000 to 100000 |  | 250 to 1000
11 | C=C(C)C(=O)Nc1ccc(-c2c(C3=CC[C@H](C(=O)N4CCCC4)CC3)c3c(N)ncnc3n2C)c(F)c1 [Example 1001] | < 100 | ≤ 100 | 
12 | C=C(C)C(=O)Nc1ccc(-c2c(C3=CC[C@@H](C(=O)N4CCCC4)CC3)c3c(N)ncnc3n2C)c(F)c1 [Example 1002] | < 100 | ≤ 100 | 
13 | C=C(C)C(=O)Nc1ccc(-c2c(C3=CC[C@@H](C(=O)N4CCC[C@@H]4C)CC3)c3c(N)ncnc3n2C)cc1 [Example 1003] | 250 to 1000 | 100 to 250 | 
14 | C=CC(=O)N1CCN(c2cccc(-c3c(-c4ccc(Oc5cccc(C)n5)cc4)c4c(N)ncnc4n3C)c2)CC1 [Example 1004] | < 100 | ≤ 100 | 
15 | C=CC(=O)NCc1cccc(-c2c(-c3ccc(Oc4cccc(C)n4)cc3)c3c(N)ncnc3n2C)c1 [Example 1005] | 250 to 1000 | 100 to 250 | 
16 | C=C(C)C(=O)Nc1ccc(-c2c(C3=CC[C@H](C(=O)N4CCC[C@H]4C)CC3)c3c(N)ncnc3n2C)cc1 [Example 1006] | 250 to 1000 | 250 to 1000 | 
17 | C#CCCCCn1c(-c2ccc(NC(=O)C(=C)C)cc2)c(-c2ccc(Oc3nccc(C)n3)c(F)c2)c2c(N)ncnc21 [Example 1007] | < 100 | ≤ 100 | 
18 | C=C(C)C(=O)Nc1ccc(-c2c(C3=CC[C@@H](C(=O)N4CCC[C@H]4C)CC3)c3c(N)ncnc3n2C)cc1 [Example 1008] | 100 to 250 | 100 to 250 | 
19 | C=C(C)C(=O)Nc1ccc(-c2c(C3=CC[C@@](C)(C(=O)N4CCCC4)CC3)c3c(N)ncnc3n2C)cc1 [Example 1009] | 1000 to 100000 |  | 250 to 1000
20 | C=C(C)C(=O)Nc1nn(C)c(-c2c(-c3ccc(Oc4nccc(C)n4)cc3)c3c(N)ncnc3n2C)c1C [Example 1010] | 1000 to 100000 | 250 to 1000 | 
21 | C=C(C)C(=O)Nc1ccc(-c2c(C3=CC[C@@H](C(=O)N4CCCC45COC5)CC3)c3c(N)ncnc3n2C)c(F)c1 [Example 1011] | < 100 | ≤ 100 | 

Row | Compound | IC50 (FGFR2) [nM] | IC50 (SNU-16; [1]) [nM] | IC50 (SNU-16; SNU-16 cells) [nM]
22 | C=C(C)C(=O)Nc1ccc(-c2c(C3=CC[C@H](C(=O)N4CCCC45COC5)CC3)c3c(N)ncnc3n2C)c(F)c1 [Example 1012] | 250 to 1000 | 100 to 250 | 
23 | Cc1ccnc(Oc2ccc(-c3c(-c4ccc(NC(=O)/C=C/CN(C)C)cc4)n(C)c4ncnc(N)c34)cc2F)n1 [Example 1013] | < 100 | ≤ 100 | 
24 | C=C(C)C(=O)Nc1ccc(-c2c(C3=CC[C@H](C(=O)N4CCCC4)OC3)c3c(N)ncnc3n2C)cc1 [Example 1014] | < 100 | ≤ 100 | 
25 | C=C(C)C(=O)Nc1ccc(-c2c(C3=CC[C@@H](C(=O)N4CCCC4)OC3)c3c(N)ncnc3n2C)cc1 [Example 1015] | 1000 to 100000 | 1000 to 100000 | 
26 | C=C(C)C(=O)Nc1ccc(-c2c(C3=CC[C@@H](C(=O)N4CCCC4)CC3)c3c(N)ncnc3n2C)c(Cl)c1 [Example 1016] | 1000 to 100000 | 1000 to 100000 | 
27 | C=C(C)C(=O)Nc1ccc(-c2c(C3=CC[C@H](C(=O)N4CCCC4)CC3)c3c(N)ncnc3n2C)c(Cl)c1 [Example 1017] | < 100 | ≤ 100 | 
28 | C=CC(=O)Nc1cccc(-c2c(C3=CC[C@H](C(=O)N4CCCC4)CC3)c3c(N)ncnc3n2C)c1 [Example 1018] | < 100 | ≤ 100 | 
29 | C=CC(=O)Nc1cccc(-c2c(C3=CC[C@@H](C(=O)N4CCCC4)CC3)c3c(N)ncnc3n2C)c1 [Example 1019] | < 100 | ≤ 100 | 
30 | C=CC(=O)Nc1ccc(-c2c(-c3ccc(C(=O)NCC4(F)COC4)cc3)c3c(N)ncnc3n2C)cc1 [Example 1020] | 100 to 250 | ≤ 100 | 
31 | C=C(C)C(=O)Nc1cccc(-c2c(-c3ccc(C(=O)NCC4(F)COC4)cc3)c3c(N)ncnc3n2C)c1 [Example 1021] | < 100 | ≤ 100 | 
32 | C=C(C)C(=O)Nc1ccc(-c2c(C3=CC[C@@H](C(=O)NCC4(F)COC4)CC3)c3c(N)ncnc3n2C)cc1 [Example 1022] | 250 to 1000 | 1000 to 100000 | 
33 | C=C(C)C(=O)Nc1ccc(-c2c(C3=CC[C@H](C(=O)NCC4(F)COC4)CC3)c3c(N)ncnc3n2C)cc1 [Example 1023] | 1000 to 100000 | 1000 to 100000 | 
34 | C=C(C)C(=O)Nc1ccc(-c2c(C3=CC[C@](C)(C(=O)N4CCCC4)CC3)c3c(N)ncnc3n2C)cc1 [Example 1024] | 250 to 1000 |  | 250 to 1000
35 | C=C(C)C(=O)Nc1ccc(-c2c(C3=CC[C@@](C)(C(=O)N4CCCC4)CC3)c3c(N)ncnc3n2C)cc1 [Example 1025] | 1000 to 100000 |  | 1000 to 100000
36 | C=C(C)C(=O)Nc1ccc(-c2c(C3=CC[C@](C)(C(=O)N4CCCC4)CC3)c3c(N)ncnc3n2C)cc1 [Example 1026] | 1000 to 100000 |  | 1000 to 100000
37 | C=CC(=O)Nc1cccc(-c2c(-c3ccc4c(c3)CCCN4C)c3c(N)ncnc3n2C)c1 [Example 1027] | 1000 to 100000 | 1000 to 100000 | 
38 | C=CC(=O)Nc1cccc(-c2c(-c3ccc(C(=O)NCC4(F)COC4)cc3)c3c(N)ncnc3n2C)c1 [Example 1030] | < 100 | ≤ 100 | 
39 | C=C(C)C(=O)Nc1ccc(-c2c(C3=CC[C@@H](C(=O)N4CC[C@@H]5C[C@@H]54)CC3)c3c(N)ncnc3n2C)cc1 [Example 1037] | < 100 | 250 to 1000 | 
40 | C#Cc1ccc(-c2c(-c3ccc(C(=O)N4CCCC4)cc3)c3c(N)ncnc3n2C)cn1 [Example 1040] | 1000 to 100000 | 250 to 1000 | 
41 | Cc1ccnc(Oc2ccc(-c3c(-c4ccc(NC(=O)/C=C/CN(C)C)cc4)n(C)c4ncnc(N)c34)cc2)n1 [Example 1041] | 100 to 250 | ≤ 100 | 

Source: patent US11780845B2 (Relay Therapeutics, Inc., priority 2019, dated 2023)
